Experimental data as given in patent publication US8383550B2, “Defoliant” (Bayer Cropscience AG, priority 2009, dated 2013).

Key:
[1] = test system: Cotton plants of the cultivar "Carmen"; test: Leaf drop effect on cotton plants after spray application (greenhouse); assay type: in vivo; settings: 1 l/ha Actirob B added
Protocol: (§1) A water application rate of 300 l/ha was initially charged. The components herbicide and adjuvant were then added with stirring at the application rates and in the manner stated in the tables, such that a homogeneous spray liquor was formed. Here, the active ingredients were employed as suspension concentrates (thidiazuron as ®Escalate liquid SC500. Metribuzin as ®Sencor SC 80, thidiazuron+diuron as ®Dropp Ultra SC180) from Bayer CropScience AG. The adjuvant used was ®Actirob B (Novance).
(§2) Cotton seeds of the cultivar “Carmen” were sown at a depth of 1 cm and cultivated in a greenhouse cabin (20000-50000 LUX light: 14 hrs/day; temperature at night: 22° C., during the day: 30° C., rel. atmospheric humidity at night: 65%, during the day 50%) until they had reached the 6-8 leaf stage.
(§3) The plants were treated on a laboratory spray track with spray liquors of thidiazuron and thidiazuron with combination partners. The water application rate for the spray application was 300 l/ha. After the treatment, the plants were returned to the greenhouse cabin.
4 and 8 days after the application, the leaf drop effect was evaluated (leaf drop %): • 0%=no noticeable effect compared to untreated plants; • 100%=all leaves have dropped off.

[2] = test system: Cotton plants of the cultivar "Carmen"; test: Regrowth of cotton plants, by weighing newly formed leaf material; assay type: in vivo; settings: 2 weeks after application, 1 l/ha Actirob B added, repeated twice
Protocol: as §1, §2, §3
2 weeks after the application, the regrowth of the plants was assessed by weighing the newly formed leaf material. The tabular values express the regrowth as a percentage of the untreated control.

[3] = Test 1, dose 30 g of a.i./ha, 0%=no effect, 100%=all leaves dropped

| Structure (SMILES) | Leaf drop [%] 8 days after application ([1]; Test 1, dose 30 g of a.i./ha) [%] | Leaf drop [%] 4 days after application [1, 3] [%] | Regrowth [%] as a percentage of the untreated control ([2]; Table 3, dose 30 g of a.i./ha) | Leaf drop [%] 4 days after application ([1]; Test 1, dose 15 g of a.i./ha) [%] | Leaf drop [%] 8 days after application ([1]; Test 1, dose 15 g of a.i./ha) [%] | Leaf drop [%] 4 days after application ([1]; Test 2, dose 15 g of a.i./ha) [%] | Leaf drop [%] 8 days after application ([1]; Test 2, dose 15 g of a.i./ha) [%] | Leaf drop [%] 4 days after application ([1]; Test 2, dose 30 g of a.i./ha) [%] | Leaf drop [%] 8 days after application ([1]; Test 2, dose 30 g of a.i./ha) [%] | Regrowth [%] as a percentage of the untreated control ([2]; Table 3, dose 15 g of a.i./ha) [%] | Regrowth [%] as a percentage of the untreated control ([2]; Table 4, dose 15 g of a.i./ha) [%] | Regrowth [%] as a percentage of the untreated control ([2]; Table 4, dose 30 g of a.i./ha) [%] |
| --- | --- | --- | --- | --- | --- | --- | --- | --- | --- | --- | --- | --- |
| O=C(Nc1ccccc1)Nc1cnns1 [thidiazuron] | 63 | 0 | +60% |  |  |  |  |  |  |  |  |  |
| CSc1nnc(C(C)(C)C)c(=O)n1N [metribuzin] | 0 | 0 | 0% | 0 | 0 | 0 | 0 | 0 | 0 | 0 | 0 | 0 |
